Data reported in article PMC10218498, “Exploring BenzylethoxyAryl Urea Scaffolds for Multitarget Immunomodulation Therapies” (International Journal of Molecular Sciences, 2023).
Read-outs that look alike come from different tables or passages of the source.

Tests used:
[1] = test system: THP-1 cells; assay: Immune cell viability in monoculture and co-cultures with HT-29 by flow cytometry; type: cell-based, human; settings: for THP-1 living cells compared to control (%), Monocult. THP-1: THP-1 monoculture, 20 μM; for THP-1 living cells compared to control (%), 1:5 HT-29/THP-1, 24 h / THP-1 living cells compared to control (%), 1:5 HT-29/THP-1, 48 h: co-culture 1:5 HT-29/THP-1, 20 μM; for THP-1 living cells compared to control (%), 2:1 HT-29/THP-1, 24 h / THP-1 living cells compared to control (%), 2:1 HT-29/THP-1, 48 h: co-culture 2:1 HT-29/THP-1, 20 μM
Method: From the previous study, we also determined the effect of the selected compounds on the human monocyte cells THP-1 in the described co-cultures. We also assessed the effect of the compounds on the cell viability of monocultured THP-1.
On the other hand, to study the effect of the compounds on the cell viability in co-culture with THP-1 cells, 10^5 or 2 × 10^5 of the HT-29 cells line per well were seeded and incubated for 24 h, then the medium was changed by one cell culture medium supplemented with IFN-γ (10 ng/mL; human, Invitrogen®, Waltham, MA, USA) and containing 5 × 10^5 or 105, respectively, of THP-1 per well and the corresponding compound at 20 μM or DMSO for the positive control. After 24 h/48 h of incubation, supernatants were collected to determine THP-1 living cells. Additionally, stain cancer cells were collected with trypsin. Both types of suspension cells were fixed with 4% in PBS paraformaldehyde and counted by flow cytometry.

[2] = target: PD-L1 (Homo sapiens, UniProt Q9NZQ7); assay: PD-L1 relative quantification by flow cytometry in HT-29; type: cell-based; set-up: endogenous in cells; host or cells: HT-29; settings: 24 h; for Total PD-L1 (%): relative to DMSO control = 100; for inhibition at 20 µM: read-out: inhibition rate of PD-L1
Sequence of PD-L1 (Q9NZQ7 19-290): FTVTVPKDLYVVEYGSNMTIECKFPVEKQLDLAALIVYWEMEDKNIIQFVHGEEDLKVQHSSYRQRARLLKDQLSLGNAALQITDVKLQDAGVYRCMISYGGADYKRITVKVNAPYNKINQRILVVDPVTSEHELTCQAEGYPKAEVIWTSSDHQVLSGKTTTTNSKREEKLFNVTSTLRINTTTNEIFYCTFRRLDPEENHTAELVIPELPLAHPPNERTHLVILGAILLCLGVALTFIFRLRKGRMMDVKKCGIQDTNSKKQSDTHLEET
Method: To assess the effect of the selected compounds on the biological targets PD-L1 and VEFGR-2, we performed the study on both cancer cell lines HT-29 and A-549 and by flow cytometry technique. […] For these assays, cells were incubated for 24 h in the presence of the corresponding compounds at 20 µM concentration.
To study the effect of the compounds on every biological target in cancer cell lines, the compounds were used at 20 µM dose.
For the assay, 10^5 cells per well were incubated for 24 h with the corresponding dose of the tested compound in a total volume of 500 μL of their growth media.
On the one hand, to detect total PD-L1 and VEGFR-2, after the cell treatments, they were collected and fixed with 4% in PBS paraformaldehyde. After fixation, a treatment with 0.5% in PBS TritonTM X-100 was performed, and finally, cells were stained with FITC Mouse monoclonal Anti-Human VEGFR-2 (ab184903) and Alexa Fluor® 647 Rabbit monoclonal Anti-PD-L1 (ab215251).
On the other hand, to detect membrane PD-L1 and VEGFR-2, the process was the same, avoiding the treatment with 0.5% in PBS TritonTM X-100 step.

[3] = test system: A-549 (pulmonary adenocarcinoma); assay: MTT cell proliferation assay, A-549; type: cell-based, human; settings: for IC50: Homo sapiens, read-out: IC50 A-549; for SI (A-549) (IC50HEK293/A-549): selectivity index
Method: The 3-(4,5-dimethylthiazol-2-yl)-2,5-diphenyltetrazolium bromide (MTT; Sigma Chemical Co.) dye reduction assay in 96-well microplates was used. […] After that, the supernatant was discarded and replaced by 100 µL of DMSO to dissolve formazan crystals. The absorbance was then read at 550 nm by spectrophotometry. For all concentrations of compound, cell viability was expressed as the percentage of the ratio between the mean absorbance of treated cells and the mean absorbance of untreated cells. Three independent experiments were performed, and the IC50 values (i.e., concentration half inhibiting cell proliferation) were graphically determined using GraphPad Prism 4 software.

[4] = test system: CD11b; assay: CD11b relative quantification by flow cytometry in co-cultured THP-1; type: cell-based, human; settings: 20 μM; for % CD11b: related to non-treated cells; for reduction of CD11b: excess of cancer cells (2:1)
Method: Reducing the expression of CD11b has become a promising target for immune modulation in anti-cancer therapies. For that reason, we decided to study the effect of our compounds on CD11b in THP-1 cells co-cultured with HT-29. We also determine the relative amount of CD80, a common surface marker for monocytes. This study was performed on the collected cell culture from each well and gating living THP-1 cell population.
To study the effect of the compounds on every biological target in co-cultured THP-1 immune cells with cancer cell line HT-29, the compounds were incubated for 24 h/48 h as described before.
To detect membrane CD11b and CD80, after the cell incubation, suspended THP-1 was collected from the cell culture of each sample well, fixed with 4% in PBS paraformaldehyde, and stained with FITC Mouse monoclonal Anti-Human CD80 (Sigma-Aldrich, S. Louis, MO, USA, SAB4700142) and Alexa Fluor® 647 Rabbit monoclonal Anti-CD11b (Merck, S. Louis, MO, USA, #MABF366).

[5] = test system: ZAP70; assay: Immunoblotting of OT-1 CTL signaling proteins: ZAP70; type: cell-based, mice; settings: OT-1, 20 μM, 24 h
Excerpt: We next studied the effect of our compounds on the signaling cascade downstream of the TCR. […] However, both the expression and phosphorylation of LCK were increased in response to all compounds. The effects on ZAP70 and LAT were more complex, with opposing effects on total protein expression versus phosphorylation. Thus, all compounds modulated signaling downstream of the TCR in a manner that is likely to impact T-cell activation and activity.
CD8+ cells were obtained from the inguinal, axillary, brachial, and mesenteric lymph nodes previously collected from OT-1 mice. Lymph node cells were isolated by mashing through a […] cell strainer. Cells were resuspended in IMDM cell media at a concentration of 0.3 million cells/mL. N4 ovalbumin peptide was added at a concentration of 10 nM, and cells were incubated for 48 h at 5% CO2, 37 °C. On day 2 from recollection, cells were pelleted at 1300 rpm for 5 min and washed with PBS to remove N4 peptide. The cell pellet was resuspended in fresh IMDM media in a new flask in a 0.3 million cells/mL and supplemented with IL-2 at 20 ng/mL. After incubation for a further 48 h (day 4), cells were re-seeded in fresh IMDM media at a concentration of 0.3 million cells/mL supplemented with IL-2 at 20 ng/mL. Cells were cultured for a further 48 h prior to use on day 6 in functional assays.
To study the effect of the compounds in the signaling pathway of CTLs, the compound was incubated for 24 h at 20 μM. After this time, cells were collected and washed twice in PBS and lysed in radioimmunoprecipitation assay (RIPA) lysis buffer (50 mM tris-HCl at pH 7.4, 150 mM sodium chloride, 5 mM EGTA, 0.1% SDS, 1% NP-40, and 1% deoxycholate) supplemented with a protease and phosphatase inhibitor cocktail (mini complete ULTRA Protease tablet and phosSTOP tablet from Roche, Basel, Switzerland). Lysates were clarified by high-speed centrifugation (17,000 rpm for 15 min at 4 °C). Protein concentration was measured using a Micro BCA Protein Assay (Thermo Scientific, Waltham, MA, USA), and 10 μg to 30 μg of total protein were supplemented with 2X SDS sample buffer [tris (pH 6.8), 20% glycerol, 5% SDS, b-mercaptoethanol, and bromophenol blue) and boiled at 95 °C for 5 min. […] Bound Ab was detected by incubation with anti-rabbit and anti-mouse horseradish peroxidase secondary Ab (Cell Signaling Technology) and visualized using the Bio-Rad ChemiDoc MP Imaging System.

[6] = membrane THP-1, 1:5 HT-29/THP-1, 24 h
[7] = membrane THP-1, 2:1 HT-29/THP-1, 48 h

| Compound | THP-1 living cells compared to control (%), Monocult. THP-1 [1] | THP-1 living cells compared to control (%), 1:5 HT-29/THP-1, 24 h [1] | THP-1 living cells compared to control (%), 1:5 HT-29/THP-1, 48 h [1] | THP-1 living cells compared to control (%), 2:1 HT-29/THP-1, 24 h [1] | THP-1 living cells compared to control (%), 2:1 HT-29/THP-1, 48 h [1] | Total PD-L1 (%) ([2]; HT-29, 20 µM) | IC50 ([3]; A549, MTT, 48 h of treatment) | SI (A-549) (IC50HEK293/A-549) [3] | % CD11b [4, 6] | % CD11b [4, 7] | inhibition at 20 µM ([2]; HT-29, HT-29, 20 µM) | ZAP-70 protein expression (Western blot quantification) [5] | pZAP-70 protein expression (Western blot quantification) [5] | reduction of CD11b ([4]; 48 h) | inhibition rate of PD-L1 ([2]; HT-29, 20 µM) | inhibition at 20 µM ([2]; HT-29, 20 µM) | IC50 ([3]; A549, 48 h) |
| --- | --- | --- | --- | --- | --- | --- | --- | --- | --- | --- | --- | --- | --- | --- | --- | --- | --- |
| Cc1c(COc2ccc(CN3CCCCC3C(=O)O)cc2Br)cccc1-c1ccccc1 (centres unmarked) [BMS-8, reference compound] | 99 ± 2% | 94 ± 0% | 93 ± 0% | 101 ± 9% | 97 ± 2% | 82 ± 21% | 6 ± 1 µM | 10 | 91 ± 1% | 80 ± 2% | – | – | – | – | – | – | – |
| COc1ccc(COc2cccc(NC(=O)Nc3ccc(F)cc3)c2)cc1 [Compound 2] | 111 ± 13% | 97 ± 7% | 105 ± 4% | 90 ± 28% | 105 ± 1% | 71 ± 15% | 3.4 ± 0.8 µM | >29 | 92 ± 9% | 86 ± 3% | ~50% | 34 | 88 | about 20% | – | – | – |
| COc1ccc(COc2cccc(NC(=O)Nc3ccc(Br)cc3)c2)cc1 [Compound 8] | 98 ± 10% | 95 ± 12% | 100 ± 11% | 82 ± 14% | 97 ± 9% | 40 ± 2% | 1.6 ± 0.8 µM | >62 | 91 ± 4% | 93 ± 25% | ~60% | 37 | 74 | – | – | – | – |
| COc1ccc(COc2cccc(NC(=O)Nc3ccc(OC)cc3)c2)cc1 [Compound 11] | 103 ± 7% | 105 ± 4% | 94 ± 9% | 66 ± 24% | 102 ± 5% | 118 ± 3% | 12 ± 1 µM | >9 | 95 ± 6% | 83 ± 5% | – | 38 | 77 | about 20% | no inhibitory effect | – | – |
| COc1ccc(COc2cccc(NC(=O)Oc3ccccc3)c2)cc1 [Compound 14] | 127 ± 12% | 93 ± 9% | 97 ± 9% | 81 ± 6% | 109 ± 2% | 68 ± 5% | – | >27 | 78 ± 11% | 81 ± 8% | – | 54 | 108 | about 20% | – | ~40% | 3.7 ± 0.5 µM |
